The target in experiment [1] is T1, PMM1 (phosphomannomutase1) (Homo sapiens, UniProt Q92871).
T1 construct: recombinant, E. coli BL21(DE3), purified as in earlier work (DEAE, butyl Sepharose); dimer; no tag mentioned
T1 sequence (Q92871 2-262): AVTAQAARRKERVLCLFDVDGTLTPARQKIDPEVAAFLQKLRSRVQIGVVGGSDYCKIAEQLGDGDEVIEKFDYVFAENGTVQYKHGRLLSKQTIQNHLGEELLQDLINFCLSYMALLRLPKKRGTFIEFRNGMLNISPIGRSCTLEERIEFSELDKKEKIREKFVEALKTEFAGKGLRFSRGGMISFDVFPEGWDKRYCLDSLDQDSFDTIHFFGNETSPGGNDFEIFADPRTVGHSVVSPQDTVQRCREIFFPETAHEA
As to the kind of experiment: thermal shift assay, Sypro Orange. The format is binding. The note with it: 0-1 mM Glc-1,6-P2; MgCl2 1 mM, pH 7.5.

For experiment [2], the target named is T2, PMM2 (phosphomannomutase2) (Homo sapiens, UniProt O15305).
T2 construct: recombinant, E. coli BL21(DE3), purified as in earlier work; no tag mentioned
T2 sequence (O15305 2-246): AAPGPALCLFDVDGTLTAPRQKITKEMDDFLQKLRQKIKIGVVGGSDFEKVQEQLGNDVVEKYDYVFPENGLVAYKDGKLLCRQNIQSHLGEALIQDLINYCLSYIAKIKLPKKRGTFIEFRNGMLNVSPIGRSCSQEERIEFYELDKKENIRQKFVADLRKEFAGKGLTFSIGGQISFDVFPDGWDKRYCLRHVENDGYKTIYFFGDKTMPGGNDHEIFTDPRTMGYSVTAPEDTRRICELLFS
As to the kind of experiment: thermal shift assay, Sypro Orange. The experiment is classed as binding. The note with it: 0-1 mM Glc-1,6-P2; MgCl2 1 mM, pH 7.5.

Experiment [3] deals with T2, PMM2 (phosphomannomutase2). As to the kind of experiment: coupled NADPH assay of phosphoglucomutase activity. The experiment is classed as biochemical. The following applies: 27 μM Glc-1,6-P2; MgCl2 5 mM, pH 7.5, 32°C.
For experiment [4], the target named is T1, PMM1 (phosphomannomutase1). As to the kind of experiment: coupled NADPH assays of phosphoglucomutase and Glc-1,6-P2 phosphatase activity. The format is biochemical. The note with it: PGM: 40 μM Glc-1-P, 27 μM Glc-1,6-P2, phosphatase: 0.145 mM Glc-1,6-P2.

Broadly, the Km is the concentration of substrate that gives half-maximal velocity.

SMILES strings stand for the structures.

In the case of `O=P(O)(O)OC[C@H]1O[C@H](OP(=O)(O)O)[C@H](O)[C@@H](O)[C@@H]1O` [Glc-1,6-P2], the Tm result in experiment [1] is listed as “effect of Glc-1,6-P2 on the melting temperature of PMM1 is seen only at very high concentrations”; in experiment [2] it was “The bis-phosphate hexose binds PMM2”. Turning to `O=P(O)(O)O[C@H]1O[C@H](CO)[C@@H](O)[C@H](O)[C@H]1O` [Glc-1-P], the Km in experiment [3] was 8.2 ± 0.7 µM. Turning to `O=P(O)(O)C(Cl)(Cl)P(=O)(O)O` [clodronate, (Dichloro-phosphono-methyl)phosphonic acid], the “activity at 2.8 mM clodronate” value in experiment [4] was “clodronate as a novel specific inhibitor of PMM1 that decreases both PGM and Glc-1,6-P2-ase activities”.

(Values after PMC5736207 (PLoS ONE, 2017).)
